From patent publication US10159265B2, “Feed composition for reducing ruminant methanogenesis” (priority 2012, dated 2018)
Marks after values point to notes of the source that are not given here.

Key:
[1] = test system: "in vitro" rumen fluid culture; assay: Biogas production in "in vitro" rumen fluid culture (pressure meter); format: cell-based, calves; set-up: Average biogas production / Cumulative biogas production / Biogas production: unit not given here; details: Exp 1; for Average biogas production: average over doses and incubation times
Experimental: (§1) Two trials following an identical experimental protocol were designed to study the effect of different pure flavonoids on rumen fermentation using a simulatory “in vitro” system based on the experimental protocol described by Theodorou M K et al. (1994) Animal Feed Science and Technology, 48 (3), p. 185-197; Mauricio, R. M., et al. (1999) Animal Feed Science and Technology 79, 321-330.
Gas production was determined from a semi-automatic pressure meter, the relationship between pressure levels and the produced gas volume was previously calculated.
(§2) Rumen cannulated calves which received a mixed ration mainly composed of concentrate (90:10) were used as rumen fluid donor; feed composition is presented in Table 1. The inoculum was collected and filtered through two-layer surgical gauze and kept in thermo pots. Flavonoids (Table 2) plus 600 mg of concentrate (Table 1) and 60 mg of barley straw as the substrate were dosed by triplicate in preheated bottles (39° C.) and maintained under anaerobic conditions. Flavonoids isonaringin, neoeritrocin, poncirin were purchased from INDOFINE Chemical Company, Inc (USA). 10 ml of rumen fluid and 40 ml of incubation medium were added to the bottles (McDougall, El (1948) Studies on ruminant saliva. 1. The composition and output of sheep's saliva. Biochem J. 43(1) 99-109). Once the bottles were filled and the anaerobic condition was applied, the bottles were sealed and the incubation process was started in a hot water bath. […] Each sample was incubated in triplicate in two sets or batches.

[2] = test system: methanogenic (archea) populations; assay: Methane production in "in vitro" rumen fluid culture; format: cell-based, calves; set-up: Average methane production / Accumulated methane production / Methane production / Cumulative methane production: unit not given here; details: Exp 1
From the text: as §1, §2
The effects of flavonoids substances on fermentation activity of certain archea populations which are theoretically responsible for the methane production were analyzed.
The experimental design allows determining whether the effect of flavonoids on methane reduction was derived from a general reduction in microbial activity and biogas production or contrarily flavonoid affects specifically on methanogenic (archea) populations. The presence of flavonoids in the culture medium reduced methane contribution in the total biogas production (P<0.05) although, again, the aforementioned impact was heterogeneous.

[3] = test system: "in vitro" ruminal fluid cultures; assay: Volatile fatty acid concentration and molar proportions in "in vitro" ruminal fluid cultures; format: cell-based, calves; details: for % Acetate, molar ratio, average (μ) / % Butyrate, molar ratio, average (μ) / % Propionate, molar ratio, average (M) / VFA concentration, average (μ): average over incubation times
From the text: as §1
(§3) Rumen cannulated calves which received a mixed ration mainly composed of concentrate (90:10) were used as rumen fluid donor; feed composition is presented in Table 1. The inoculum was collected and filtered through two-layer surgical gauze and kept in thermo pots. Flavonoids (Table 2) plus 600 mg of concentrate (Table 1) and 60 mg of barley straw as the substrate were dosed by triplicate in preheated bottles (39° C.) and maintained under anaerobic conditions. Flavonoids isonaringin, neoeritrocin, poncirin were purchased from INDOFINE Chemical Company, Inc (USA). 10 ml of rumen fluid and 40 ml of incubation medium were added to the bottles (McDougall, El (1948) Studies on ruminant saliva. 1. The composition and output of sheep's saliva. Biochem J. 43(1) 99-109). Once the bottles were filled and the anaerobic condition was applied, the bottles were sealed and the incubation process was started in a hot water bath. Pressure readings were made at 2, 4, 6, 8, 12, 24, 36 and 48 hours. Each sample was incubated in triplicate in two sets or batches.
[…] P., 1982 Science des Aliments 2, 131-144), lactate (Taylor, K. A. C. C., 1996. Appl. Biochem. Biotechnol. Enzym. Eng. Biotechnol. 56, 49-58) and ammonia (Chaney, A. L., Marbach, E. P., 1962. Clin. Chem. 8, 130-132) analyses.

[4] = test system: "in vitro" ruminal fluid cultures; assay: Ammonia (N-NH3) concentration in "in vitro" ruminal fluid cultures; format: cell-based, calves; details: for N-NH3 concentration, average (M): average over incubation times
From the text: as §1, §3
(§4) After 12 hours of incubation, one bottle (replicate) from each treatment was opened, pH was recorded and the bottle was sampled for volatile fatty acids (Jouany, J. P., 1982 Science des Aliments 2, 131-144), lactate (Taylor, K. A. C. C., 1996. Appl. Biochem. Biotechnol. Enzym. Eng. Biotechnol. 56, 49-58) and ammonia (Chaney, A. L., Marbach, E. P., 1962. Clin. Chem. 8, 130-132) analyses.

[5] = test system: "in vitro" ruminal fluid culture; assay: Lactate concentration in "in vitro" ruminal fluid culture; format: cell-based, calves; details: 12 hours of incubation
From the text: as §1, §3, §4

ruminal bacteria = assay: Bacterial DNA concentration by qPCR; format: cell-based, calves; details: 12 hours of incubation
Experimental: as §3, §4
(§5) The environmental DNA was extracted using the technique proposed by Yu and Morrison (2004). Quantification of Streptococcus bovis, Megasphaera elsdenii and Selenomonas ruminantium DNA was done by qPCR using specific primers (Tajima, K. et al. 2001. Appl. Environ. Microb. 67, 2766-2774; Ouwerkerk, D., et al. 2002. J. Appl. Microbiol. 92, 753-758). Results were statistically analyzed using the PROC MIXED procedure of SAS statistical package (SAS, 2000, User's guide: Statistics, version 8 editions inst., Inc., Cary, N.C.). The least significant difference was used to compare the means. Differences between means in which P<0.05 were accepted as significant.

Streptococcus bovis = assay: qPCR relative quantification of Streptococcus bovis; format: cell-based; details: 12 hours of incubation
Experimental: as §3, §4, §5

Selenomonas ruminantium = assay: qPCR relative quantification of Selenomonas ruminantium; format: cell-based; details: 12 hours of incubation
Experimental: as §3, §4, §5

Megasphaera elsdenii = assay: qPCR relative quantification of Megasphaera elsdenii; format: cell-based; details: 12 hours of incubation
Experimental: as §3, §4, §5

[6] = test system: "in vitro" ruminal fluid cultures; assay: Ammonia (N-NH3) concentration in "in vitro" ruminal fluid cultures; format: cell-based, calves; details: 72 h
[7] = average over doses and incubation times

COc1ccc([C@@H]2CC(=O)c3c(O)cc(O[C@@H]4O[C@H](CO[C@@H]5O[C@@H](C)[C@H](O)[C@@H](O)[C@H]5O)[C@@H](O)[C@H](O)[C@H]4O)cc3O2)cc1O [Hesperidin, hesperidin] showed a Cumulative biogas production ([1]; 12 h incubation) of 187.19, a Cumulative biogas production ([1]; 24 h incubation) of 227.31 and a Cumulative biogas production ([1]; 48 h incubation) of 261.28. The Cumulative biogas production ([1]; 72 h incubation) was 282.84, the Average biogas production [1] was 239.65^cd and the Average biogas production ([1]; listed as hesperidin) was 239.6. The Biogas production ([1]; dose 1, 0.2 g/kg DM) was 239.91, the Biogas production ([1]; dose 2, 0.5 g/kg DM) was 239.4 and the Accumulated methane production ([2]; 12 h) was 21.08. For the same compound, the “Proportion of methane in the produced biogas” value (“Proportion of methane” for short) ([2]; 12 h) was 11.26, the Accumulated methane production ([2]; 24 h) was 26.03 and the “Proportion of methane” value ([2]; 24 h) was 12.40. For the same compound, the Accumulated methane production ([2]; 48 h) was 31.54, the “Proportion of methane” value ([2]; 48 h) was 16.43 and the Accumulated methane production ([2]; 72 h) was 35.04. The “Proportion of methane” value ([2]; 72 h) was 16.55, the Average methane production [2, 7] was 28.42^cd and the “Proportion of methane” value [2, 7] was 14.16^cd. For the same compound, the Average methane production ([2]; average over doses and incubation times, listed as hesperidin) was “not modified”, the Methane production ([2]; dose 1, 0.2 g/kg DM) was 28.11 and the “Proportion of methane” value ([2]; dose 1, 0.2 g/kg DM) was 14.05. The Methane production ([2]; dose 2, 0.5 g/kg DM) was 28.74, the “Proportion of methane” value ([2]; dose 2, 0.5 g/kg DM) was 14.27 and the “% Acetate, molar ratio” value ([3]; 0 h) was 62.51 mol/100 mol. For the same compound, the “% Butyrate, molar ratio” value ([3]; 0 h) was 9.07 mol/100 mol, the “% Propionate, molar ratio” value ([3]; 0 h) was 20.03 mol/100 mol and the “A/P rate (acetate/propionate)” value ([3]; 0 h) was 3.12. The VFA concentration ([3]; 0 h (initial constant value)) was 13.78 mmol/L, the “% Acetate, molar ratio” value ([3]; 12 h) was 56.88 mol/100 mol and the “% Butyrate, molar ratio” value ([3]; 12 h) was 10.41 mol/100 mol. For the same compound, the “% Propionate, molar ratio” value ([3]; 12 h) was 27.22 mol/100 mol, the “A/P rate (acetate/propionate)” value ([3]; 12 h) was 2.09 and the VFA concentration ([3]; 12 h) was 38.25 mmol/L. The “% Acetate, molar ratio” value ([3]; 72 h) was 56.04 mol/100 mol, the “% Butyrate, molar ratio” value ([3]; 72 h) was 10.78 mol/100 mol and the “% Propionate, molar ratio” value ([3]; 72 h) was 25.80 mol/100 mol. The “A/P rate (acetate/propionate)” value ([3]; 72 h) was 2.17, the VFA concentration ([3]; 72 h) was 53.70 mmol/L and the “% Acetate, molar ratio, average (μ)” value [3] was 58.48 mol/100 mol. The “% Butyrate, molar ratio, average (μ)” value [3] was 10.08 ^ab mol/100 mol, the “% Propionate, molar ratio, average (M)” value [3] was 24.35 ^ab mol/100 mol and the “VFA concentration, average (μ)” value [3] was 35.25 mmol/L. The N-NH3 concentration ([4]; 0 h (initial constant value)) was 149.99 mg/L, the N-NH3 concentration ([4]; 12 h) was 187.36 mg/L and the “N-NH3 concentration, average (M)” value [4] was 220.15 mg/L. The Lactate [5] was 44.3 mg/L, the Lactate ([5]; listed as hesperidin) was “tended to moderate the recorded increase” and the “Bacteria DNA” value (ruminal bacteria) was 9.18 ^a μg/ml. For the same compound, the “Relative Quantification 2^(ΔΔCt) S. bovis” value (Streptococcus bovis) was 0.58, the “Relative Quantification 2^(ΔΔCt) S. ruminantium” value (Selenomonas ruminantium) was 0.74 and the “Relative Quantification 2^(ΔΔCt) M. elsdenii” value (Megasphaera elsdenii) was 1.18 ^b. It also gave a N-NH3 concentration [6] of 323.11 mg/L.
C[C@@H]1O[C@@H](OC[C@H]2O[C@@H](Oc3cc(O)c4c(c3)O[C@H](c3ccc(O)cc3)CC4=O)[C@H](O)[C@@H](O)[C@@H]2O)[C@H](O)[C@H](O)[C@H]1O [Isonaringin, isonaringin] showed a Cumulative biogas production ([1]; 12 h incubation) of 185.58, a Cumulative biogas production ([1]; 24 h incubation) of 223.38 and a Cumulative biogas production ([1]; 48 h incubation) of 258.85. The Cumulative biogas production ([1]; 72 h incubation) was 278.66, the Biogas production ([1]; dose 1, 0.2 g/kg DM) was 235.13 and the Biogas production ([1]; dose 2, 0.5 g/kg DM) was 238.1. For the same compound, the Accumulated methane production ([2]; 12 h) was 19.84, the “Proportion of methane” value ([2]; 12 h) was 10.68 and the Accumulated methane production ([2]; 24 h) was 24.94. For the same compound, the “Proportion of methane” value ([2]; 24 h) was 13.56, the Accumulated methane production ([2]; 48 h) was 30.81 and the “Proportion of methane” value ([2]; 48 h) was 16.79. For the same compound, the Accumulated methane production ([2]; 72 h) was 34.08, the “Proportion of methane” value ([2]; 72 h) was 16.89 and the Average methane production [2, 7] was 27.42^de. For the same compound, the “Proportion of methane” value [2, 7] was 14.48^bc, the Average methane production ([2]; average over doses and incubation times, listed as isonaringin) was “decreased” and the Methane production ([2]; dose 1, 0.2 g/kg DM) was 27.40. The “Proportion of methane” value ([2]; dose 1, 0.2 g/kg DM) was 14.53, the Methane production ([2]; dose 2, 0.5 g/kg DM) was 27.43 and the “Proportion of methane” value ([2]; dose 2, 0.5 g/kg DM) was 14.43. The “% Acetate, molar ratio” value ([3]; 0 h) was 62.51 mol/100 mol, the “% Butyrate, molar ratio” value ([3]; 0 h) was 9.07 mol/100 mol and the “% Propionate, molar ratio” value ([3]; 0 h) was 20.03 mol/100 mol. The “A/P rate (acetate/propionate)” value ([3]; 0 h) was 3.12, the VFA concentration ([3]; 0 h (initial constant value)) was 13.78 mmol/L and the “% Acetate, molar ratio” value ([3]; 12 h) was 53.94 mol/100 mol. For the same compound, the “% Butyrate, molar ratio” value ([3]; 12 h) was 10.31 mol/100 mol, the “% Propionate, molar ratio” value ([3]; 12 h) was 30.20 mol/100 mol and the “A/P rate (acetate/propionate)” value ([3]; 12 h) was 1.79. For the same compound, the VFA concentration ([3]; 12 h) was 36.49 mmol/L, the “% Acetate, molar ratio” value ([3]; 72 h) was 55.34 mol/100 mol and the “% Butyrate, molar ratio” value ([3]; 72 h) was 10.24 mol/100 mol. The “% Propionate, molar ratio” value ([3]; 72 h) was 26.94 mol/100 mol, the “A/P rate (acetate/propionate)” value ([3]; 72 h) was 2.06 and the VFA concentration ([3]; 72 h) was 52.26 mmol/L. For the same compound, the “% Acetate, molar ratio, average (μ)” value [3] was 57.26 mol/100 mol, the “% Butyrate, molar ratio, average (μ)” value [3] was 9.87 ^ab mol/100 mol and the “% Propionate, molar ratio, average (M)” value [3] was 25.72 ^b mol/100 mol. For the same compound, the “VFA concentration, average (μ)” value [3] was 34.18 mmol/L, the “% Propionate, molar ratio, average (M)” value ([3]; listed as isonaringin) was “improved” and the N-NH3 concentration ([4]; 0 h (initial constant value)) was 149.99 mg/L. For the same compound, the N-NH3 concentration ([4]; 12 h) was 165.46 mg/L, the “N-NH3 concentration, average (M)” value [4] was 212.66 mg/L and the Lactate [5] was 92.4 mg/L. For the same compound, the “Bacteria DNA” value (ruminal bacteria) was 16.18 ^ab μg/ml, the “Relative Quantification 2^(ΔΔCt) S. bovis” value (Streptococcus bovis) was 0.46 and the “Relative Quantification 2^(ΔΔCt) S. ruminantium” value (Selenomonas ruminantium) was 0.86. For the same compound, the “Relative Quantification 2^(ΔΔCt) M. elsdenii” value (Megasphaera elsdenii) was 1.08 ^ab and the N-NH3 concentration [6] was 322.53 mg/L.
